# In patent US20240300980A1, “HETEROCYCLIC COMPOUNDS AS KRAS INHIBITOR, AND PREPARATION THEREFOR AND USE THEREOF IN TREATMENT” (SHANGHAI KECHOW PHARMA, INC., priority 2021, published 2024):
# Tested on: AGS cells (KRAS^G12D)
# Assay: Detection of cell proliferation in vitro by MTT/MTS method (cell activity experiment)
# Format: cell-based
# Details: Homo sapiens, AGS, 72 h, AGS cells; MTT/MTS; 3 days of drug treatment; read-out: AGS IC50
# How it was run: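 After 3-day compound exposure (final DMSO 0.5%), viability of AGS (KRAS G12D) cells, plated 1000/well one day before dosing, was measured at 490 nm following 4 h MTT or MTS incubation. IC50 was fitted from dose–effect curves relative to DMSO-treated wells.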
row,Compound,IC50 [nM]
1,"C#Cc1c(F)ccc2cc(O)cc(-c3c(Cl)cc4c(N5C[C@H]6CC[C@@H](C5)N6)nc(OC[C@@]56CCCN5C[C@H](F)C6)nc4c3OCC(F)(F)F)c12 [Example 331, 4-(4-((1R,5S)-3,8-diazabicyclo[3.2.1]octan-3-yl)-6-chloro-2-(((2R,7aS)-2-fluorotetrahydro-1H-pyrrolizin-7a(5H)-yl)methoxy)-8-(2,2,2-trifluoroethoxy)quinazolin-7-yl)-5-ethynyl-6-fluoronaphthalen-2-ol]",823
2,"C#Cc1cccc2cc(O)cc(-c3ccc4c(N5C[C@H]6CC[C@@H](C5)N6)nc(OC[C@@]56CCCN5C[C@H](F)C6)nc4c3F)c12 [Example 89, 4-(4-((1R,5S)-3,8-diazabicyclo[3.2.1]octan-3-yl)-8-fluoro-2-(((2R,7aS)-2-fluorotetrahydro-1H-pyrrolizin-7a(5H)-yl)methoxy)quinazolin-7-yl)-5-ethynylnaphthalen-2-ol]",1.5
3,"C#Cc1cccc2cc(O)cc(-c3ccc4c(N5C[C@H]6CC[C@@H](C5)N6)c(C#N)c(OC[C@@]56CCCN5C[C@H](F)C6)nc4c3F)c12 [Example 182, 4-((1R,5S)-3,8-diazabicyclo[3.2.1]octan-3-yl)-7-(8-ethynyl-3-hydroxynaphthalen-1-yl)-8-fluoro-2-(((2R,7aS)-2-fluorotetrahydro-1H-pyrrolizin-7a(5H)-yl)methoxy)quinoline-3-carbonitrile]",533
4,"C#Cc1c(F)ccc2cc(O)cc(-c3ccc4c(N5C[C@H]6CC[C@@H](C5)S6)nc(OC[C@@]56CCCN5C[C@H](F)C6)nc4c3F)c12 [Example 158, 4-(4-((1R,5S)-8-thia-3-azabicyclo[3.2.1]octan-3-yl)-8-fluoro-2-(((2R,7aS)-2-fluorotetrahydro-1H-pyrrolizin-7a(5H)-yl)methoxy)quinazolin-7-yl)-5-ethynyl-6-fluoronaphthalen-2-ol]",235
5,"CCc1cccc2cc(O)cc(N3CCc4c(nc(OC[C@@]56CCCN5C[C@H](F)C6)nc4N4C[C@H]5CC[C@@H](C4)N5)C3)c12 [Example 207, 4-(4-((1R,5S)-3,8-diazabicyclo[3.2.1]octan-3-yl)-2-(((2R,7aS)-2-fluorotetrahydro-1H-pyrrolizin-7a(5H)-yl)methoxy)-5,8-dihydropyrido[3,4-d]pyrimidin-7(6H)-yl)-5-ethylnaphthalen-2-ol]",25
6,"C#CC1CCCc2cc(O)cc(-c3ncc4c(N5C[C@H]6CC[C@@H](C5)N6)nc(OC[C@@]56CCCN5C[C@H](F)C6)nc4c3F)c21 (stereo partly drawn) [Example 248, 4-(4-((1R,5S)-3,8-diazabicyclo[3.2.1]octan-3-yl)-8-fluoro-2-(((2R,7aS)-2-fluorotetrahydro-1H-pyrrolizin-7a(5H)-yl)methoxy)pyrido[4,3-d]pyrimidin-7-yl)-5-ethynyl-5,6,7,8-tetrahydronaphthalen-2-ol]",6.7
7,"Oc1cc2c(c(-c3ncc4c(N5C[C@H]6CC[C@@H](C5)N6)nc(OC[C@@]56CCCN5C[C@H](F)C6)nc4c3F)c1)CC1(CC1)C2 [Example 300, 4′-(4-((1R,5S)-3,8-diazabicyclo[3.2.1]octan-3-yl)-8-fluoro-2-(((2R,7aS)-2-fluorotetrahydro-1H-pyrrolizin-7a(5H)-yl)methoxy)pyrido[4,3-d]pyrimidin-7-yl)-1′,3′-dihydrospiro[cyclopropane-1,2′-inden]-6′-ol]",177
8,"CCc1c(F)ccc2cc(O)cc(-c3ncc4c(N5C[C@H]6CC[C@@H](C5)N6)c(C#N)c(OC[C@@]56CCCN5C[C@H](F)C6)nc4c3F)c12 [Example 192, 4-((1R,5S)-3,8-diazabicyclo[3.2.1]octan-3-yl)-7-(8-ethyl-7-fluoro-3-hydroxynaphthalen-1-yl)-8-fluoro-2-(((2R,7aS)-2-fluorotetrahydro-1H-pyrrolizin-7a(5H)-yl)methoxy)-1,6-naphthyridine-3-carbonitrile]",121
9,"C#Cc1c(F)ccc2cc(O)cc(-c3ccc4c(N5CCC6(CC5)CO[C@@H](C)[C@H]6N)nc(OC[C@@]56CCCN5C[C@H](F)C6)nc4c3F)c12 [Example 114, 4-(4-((3S,4S)-4-amino-3-methyl-2-oxa-8-azaspiro[4.5]decan-8-yl)-8-fluoro-2-(((2R, 7aS)-2-fluorotetrahydro-1H-pyrrolizin-7a(5H)-yl)methoxy)quinazolin-7-yl)-5-ethynyl-6-fluoronaphthalen-2-ol]",> 2500
10,"Oc1cc2c(c(-c3ccc4c(N5C[C@H]6CC[C@@H](C5)N6)nc(OC[C@@]56CCCN5C[C@H](F)C6)nc4c3F)c1)C1CC1C2 (stereo partly drawn) [Example 156, 2-(4-((1R,5S)-3,8-diazabicyclo[3.2.1]octan-3-yl)-8-fluoro-2-(((2R,7aS)-2-fluorotetrahydro-1H-pyrrolizin-7a(5H)-yl)methoxy)quinazolin-7-yl)-1,1a,6,6a-tetrahydrocyclopropa [a]inden-4-ol]",40
11,"C#Cc1cccc2cc(O)cc(-c3ccc4c(N5C[C@H]6CC[C@@H](C5)N6)nc(OC[C@@]56CCCN5C[C@H](F)C6)nc4c3)c12 [Example 152, 4-(4-((1R,5S)-3,8-diazabicyclo[3.2.1]octan-3-yl)-2-(((2R, 7aS)-2-fluorotetrahydro-1H-pyrrolizin-7a(5H)-yl)methoxy)quinazolin-7-yl)-5-ethynylnaphthalen-2-ol]",318
12,"CCC1CCc2cc(O)cc(-c3c(F)c4nc(OC[C@@]56CCCN5C[C@H](F)C6)nc(N5C[C@H]6CC[C@@H](C5)N6)c4c4cncn34)c21 (stereo partly drawn) [Example 418, 7-(1-((1R,5S)-3,8-diazabicyclo[3.2.1]octan-3-yl)-5-fluoro-3-(((2R,7aS)-2-fluorotetrahydro-1H-pyrrolizin-7a(5H)-yl)methoxy)imidazo[1′,5′:1,2]pyrido[4,3-d]pyrimidin-6-yl)-1-ethyl-2,3-dihydro-1H-inden-5-ol]",75
13,"CCc1c(F)ccc2cc(O)cc(-c3ccc4c(N5C[C@H]6CC[C@@H](C5)N6)nc(OC[C@@]56CCCN5C[C@H](F)C6)nc4c3)c12 [Example 149, 4-(4-((1R,5S)-3,8-diazabicyclo[3.2.1]octan-3-yl)-2-(((2R, 7aS)-2-fluorotetrahydro-1H-pyrrolizin-7a(5H)-yl)methoxy)quinazolin-7-yl)-5-ethyl-6-fluoronaphthalen-2-ol]",320
14,"Oc1cc(-c2ccc3c(N4C[C@H]5CC[C@@H](C4)N5)nc(OC[C@@]45CCCN4C[C@H](F)C5)nc3c2)c2c(F)c(F)ccc2c1 [Example 150, 4-(4-((1R,5S)-3,8-diazabicyclo[3.2.1]octan-3-yl)-2-(((2R, 7aS)-2-fluorotetrahydro-1H-pyrrolizin-7a(5H)-yl)methoxy)quinazolin-7-yl)-5,6-difluoronaphthalen-2-ol]",330
15,"CCc1cccc2cc(O)cc(-c3ncc4c(C5C[C@H]6CC[C@@H](C5)N6)nc(OC[C@@]56CCCN5C[C@H](F)C6)nc4c3F)c12 (stereo partly drawn) [Example 81, 4-(4-((1R,5S)-8-azabicyclo[3.2.1]octan-3-yl)-8-fluoro-2-(((2R,7aS)-2-fluorotetrahydro-1H-pyrrolizin-7a(5H)-yl)methoxy)pyrido [4,3-d]pyrimidin-7-yl)-5-ethylnaphthalen-2-ol]",> 2500
16,"Oc1cc(-c2ncc3c(N4C[C@H]5CC[C@@H](C4)S5)nc(OC[C@@]45CCCN4C[C@H](F)C5)nc3c2F)c2c(F)cccc2c1 [Example 26, 4-(4-((1R,5S)-8-thia-3-azabicyclo[3.2.1]octan-3-yl)-8-fluoro-2-(((2R, 7aS)-2-fluorotetrahydro-1H-pyrrolizin-7a(5H)-yl)methoxy)pyrido[4,3-d]pyrimidin-7-yl)-5-fluoronaphthalen-2-ol]",300
17,"CCc1ccc2cc(O)cc(-c3ncc4c(N5C[C@H]6CC[C@@H](C5)N6)nc(OC[C@@]56CCCN5C[C@H](F)C6)nc4c3F)n12 [Example 351, 5-(4-((1R,5S)-3,8-diazabicyclo[3.2.1]octan-3-yl)-8-fluoro-2-(((2R,7aS)-2-fluorotetrahydro-1H-pyrrolizin-7a(5H)-yl)methoxy)pyrido[4,3-d]pyrimidin-7-yl)-3-ethylindolizin-7-ol]",30
18,"Oc1cc2c(c(-c3ncc4c(N5C[C@H]6CC[C@@H](C5)N6)nc(OC[C@@]56CCCN5C[C@H](F)C6)nc4c3F)c1)C(CCF)CC2 (stereo partly drawn) [Example 259, 7-(4-((1R,5S)-3,8-diazabicyclo[3.2.1]octan-3-yl)-8-fluoro-2-(((2R,7aS)-2-fluorotetrahydro-1H-pyrrolizin-7a(5H)-yl)methoxy)pyrido[4,3-d]pyrimidin-7-yl)-1-(2-fluoroethyl)-2,3-dihydro-1H-inden-5-ol]",2630
19,"Nc1cc2ccc(F)c(F)c2c(-c2ncc3c(N4C[C@H]5CC[C@@H](C4)N5)nc(OC[C@@]45CCCN4C[C@H](F)C5)nc3c2F)n1 [Example 38, 1-(4-((1R,5S)-3,8-diazabicyclo[3.2.1]octan-3-yl)-8-fluoro-2-(((2R,7aS)-2-fluorotetrahydro-1H-pyrrolizin-7a(5H)-yl)methoxy)pyrido[4,3-d]pyrimidin-7-yl)-7,8-difluoroisoquinolin-3-amine]",> 2500
20,"C#Cc1c(F)ccc2cc(O)cc(-c3ccc4c(N5CC(C#N)C5)nc(OC[C@@]56CCCN5C[C@H](F)C6)nc4c3F)c12 [Example 134, 1-(7-(8-ethynyl-7-fluoro-3-hydroxynaphthalen-1-yl)-8-fluoro-2-(((2R, 7aS)-2-fluorotetrahydro-1H-pyrrolizin-7a(5H)-yl)methoxy)quinazolin-4-yl)azetidine-3-carbonitrile]",586
21,"C#Cc1c(F)ccc2cc(O)cc(-c3ccc4c(N5C[C@H]6CC[C@@H](C5)N6)c(C(F)(F)F)c(OC[C@@]56CCCN5C[C@H](F)C6)nc4c3F)c12 [Example 185, 4-(4-((1R,5S)-3,8-diazabicyclo[3.2.1]octan-3-yl)-8-fluoro-2-(((2R,7aS)-2-fluorotetrahydro-1H-pyrrolizin-7a(5H)-yl)methoxy)-3-(trifluoromethyl)quinolin-7-yl)-5-ethynyl-6-fluoronaphthalen-2-ol]",1350
